Laboratory results taken from patent publication US20220348590A1, “CYCLOOXYGENASE-2 INHIBITORS AND USES THEREOF” (The Board Institute, Inc., priority 2019, published 2022).
pIC50: −log10 of the molar value. Like-named read-outs stand apart in the source and are kept apart here.

How the values were obtained:
[1] = molecular target: T1, human recombinant COX2 (hCOX2) (UniProt P35354); experiment: LCMS-based COX2 enzymatic inhibition assay (PGE2 quantification); assay type: biochemical; design: COX2 2 minutes pge2/pge2d4 area ratio Avg; other: 2 minutes; readout pge2/pge2d4 area ratio; average; COX2 2 minutes pge2/pge2d4 area ratio Avg; LLE; average LLE; COX2 2 minutes pge2 area (counts) Avg; readout pge2 area (counts); other: 2 min; "ovine COX2 (oCOX2), human recombinant COX2 (hCOX2)"; conditions: 2 minutes; for COX2 2 minutes pge2/pge2d4 area ratio Avg. LLE / COX2 2 minutes pge2 area (counts) Avg. LLE: average LLE; for pIC50: average
T1 sequence (P35354 1-604): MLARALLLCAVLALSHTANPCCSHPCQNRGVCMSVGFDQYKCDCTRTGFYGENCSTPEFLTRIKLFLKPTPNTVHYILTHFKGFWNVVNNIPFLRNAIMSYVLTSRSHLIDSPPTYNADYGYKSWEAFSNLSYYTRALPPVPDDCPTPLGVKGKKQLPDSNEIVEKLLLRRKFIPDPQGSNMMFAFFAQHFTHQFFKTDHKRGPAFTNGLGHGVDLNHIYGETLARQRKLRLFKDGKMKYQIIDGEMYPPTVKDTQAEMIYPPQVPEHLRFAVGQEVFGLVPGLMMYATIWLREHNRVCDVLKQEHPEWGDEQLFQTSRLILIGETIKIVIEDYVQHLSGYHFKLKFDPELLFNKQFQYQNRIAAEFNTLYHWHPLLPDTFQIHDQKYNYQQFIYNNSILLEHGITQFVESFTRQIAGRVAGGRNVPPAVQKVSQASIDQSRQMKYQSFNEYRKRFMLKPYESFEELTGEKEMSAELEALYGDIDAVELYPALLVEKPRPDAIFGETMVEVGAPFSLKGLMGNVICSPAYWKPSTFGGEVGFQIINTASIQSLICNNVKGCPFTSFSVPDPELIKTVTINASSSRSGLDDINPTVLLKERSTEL
How it was run: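 PGE2 formed from arachidonic acid (final 5 μM, 2 min) was measured by LC-MS-MS against DMSO controls. Enzyme (oCOX-1 0.1 μg or hCOX2 0.2 μg) with hematin/epinephrine cofactors at pH 8.0 was given 10 min at 37 °C with compound first. Twelve-point curves run three times gave IC50.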

ovine COX-1 (oCOX-1) = molecular target: T2, ovine COX-1 (oCOX-1) (Ovis aries, UniProt P05979); experiment: LCMS-based COX-1 enzymatic inhibition assay (PGE2 quantification); assay type: biochemical
T2 construct: purchased Cayman Chemicals (Ann Arbor, Mich.)
T2 sequence (P05979 25-600): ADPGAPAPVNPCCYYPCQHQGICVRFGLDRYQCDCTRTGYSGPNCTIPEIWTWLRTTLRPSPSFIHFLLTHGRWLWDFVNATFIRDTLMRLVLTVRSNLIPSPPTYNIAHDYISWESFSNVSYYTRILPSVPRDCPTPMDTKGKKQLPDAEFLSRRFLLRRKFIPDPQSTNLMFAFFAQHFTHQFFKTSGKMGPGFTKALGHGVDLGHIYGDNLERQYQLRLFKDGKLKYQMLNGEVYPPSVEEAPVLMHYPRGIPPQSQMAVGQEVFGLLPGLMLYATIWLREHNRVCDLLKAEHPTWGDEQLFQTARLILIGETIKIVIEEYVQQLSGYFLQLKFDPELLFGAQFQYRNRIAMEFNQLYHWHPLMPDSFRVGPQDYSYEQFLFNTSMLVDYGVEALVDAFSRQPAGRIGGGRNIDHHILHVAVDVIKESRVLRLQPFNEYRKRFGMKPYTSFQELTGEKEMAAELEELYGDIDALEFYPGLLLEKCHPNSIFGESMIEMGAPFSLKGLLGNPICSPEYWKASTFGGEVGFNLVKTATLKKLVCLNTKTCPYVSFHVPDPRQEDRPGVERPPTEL
Experimental: We have adapted a previously reported cyclooxygenase enzymatic assay utilizing LCMS quantification of PGE2 as the product of COX-1 and COX2 catalyzed conversion of arachidonic acid to evaluate the binding properties of newly synthesized ligands [Cao, 2011]. These optimized and miniaturized (384-well plates) LCMS-based COX-1 and COX2 enzymatic assays enabled us to quickly evaluate newly synthesized ligands for COX2 binding affinity and selectivity vs COX-1. Using a shorter ligand-enzyme incubation time in the LCMS assay (2 minutes vs 10 minutes) also permitted us to prioritize ligands with faster binding kinetics. Considering the relatively slow on-rate kinetics of known coxibs, due to their 3-step binding mechanism [Marnett, 2009], we believe that optimizing this critical parameter will be key to the successful development of a COX2 PET tracer. Using these enzymatic assays, we have evaluated>200 newly synthesized ligands against COX2 and >20 ligands against COX-1. Another critical property necessary for a good PET radiotracer is to have low non-specific binding (NSB) to increase the free fraction and maximize the signal to noise ratio. This property can be evaluated using in-vitro protein binding assays, and we have now evaluated>50 newly synthesized ligands in mouse, rat and human plasma protein binding (PPB) assays as well as >15 ligands in a mouse brain protein binding (BPB) assay.
Ovine COX-1 (oCOX-1), ovine COX2 (oCOX2), human recombinant COX2 (hCOX2), arachidonic acid, PGE2, d4-PGD2, and […] (labeled with deuterium atoms at positions 3 and 4) were purchased from Cayman Chemicals (Ann Arbor, Mich.). The cofactors (−)epinephrine and hematin, and the COX inhibitors indomethacin, resveratrol and diclofenac were purchased from Sigma-Aldrich (St. Louis, Mo.). Celecoxib was purchased from 3B PharmaChem International (Wuhan, China). All organic solvents were HPLC grade or better and were purchased from Thermo Fisher (Hanover Park, Ill.). Formic acid was purchased from EMD Chemicals (San Diego, Calif.). Purified water was prepared by using a Millipore Milli-Q purification system (Millipore, Billerica, Mass.). All other chemicals and solvents were ACS reagent grade, unless stated otherwise.
In an Eppendorf tube, 146 μL of 100 mM Tris.HCl (pH 8.0) buffer, 2 μL of 100 μM hematin (co-factor) and 10 μL of 40 mM L-epinephrine (co-factor) were mixed at room temperature. Next, 20 μL of Tris.HCl (pH 8.0) buffer containing 0.2 μg COX2 or 0.1 μg COX-1 (approximately 1 unit of enzyme; 1 unit COX utilizes 1 nmol 02/mg/min at 37° C.) was added, and the solution was incubated at room temperature for 2 min. A 2 μL aliquot of the COX inhibitor in DMSO was added to the enzyme solution and preincubated at 37° C. for 10 min. Negative controls were identical except that 2 μL aliquots of DMSO without inhibitor were used instead.
Each COX reaction was initiated by adding 20 μL of arachidonic acid in Tris.HCl (pH 8.0) buffer to give a final concentration of 5 μM; and the reaction was terminated after 2 min by adding 20 μL of 2.0 M HCl. The surrogate standards d4-PGE2 and d4-PGD2 (10 μL aliquot of 50 ng/mL solution in methanol) were added to correct for errors or degradation during sample handling and for variation in injection volume or instrument response during LC-MS-MS. After 30 min, PGE2, PGD2 and their surrogate standards were extracted from each incubation mixture using 800 μL hexane/ethyl acetate (50:50, v/v). The organic phase was removed, evaporated to dryness, and reconstituted in 100 μL methanol/water (50:50, v/v) for analysis using LC-MS-MS.
The concentration of PGE2 in each sample was measured using LC-MS-MS, and the percent of COX inhibition by each test solution was determined by comparing the amount of PGE2 produced in the experiment with that produced in the negative control incubation. The formation of PGD2 was measured for quality control purposes, since the levels of PGD2 should be proportional to those of PGE2. […]

[2] = readout pge2/pge2d4 area ratio, read-out: COX2 2 minutes pge2/pge2d4 area ratio Avg. IC50
[3] = readout pge2 area (counts), read-out: COX2 2 minutes pge2 area (counts) Avg. IC50
[4] = 10 minutes, pge2 area (counts), head of this section not shown, inferred
[5] = 10 minutes, pge2 area (counts), head of this section not shown, inferred, read-out: COX1 10 minutes pge2 area (counts) Avg. IC50
[6] = 10 minutes, readout pge2/pge2d4 area ratio, average LLE
[7] = 10 minutes, readout pge2/pge2d4 area ratio, average, read-out: COX1 10 minutes pge2/pge2d4 area ratio Avg. IC50
[8] = 10 minutes, readout pge2 area (counts), average LLE
[9] = 10 minutes, readout pge2 area (counts), average, read-out: COX1 10 minutes pge2 area (counts) Avg. IC50
[10] = 10 minutes, pge2/pge2d4 area ratio, head of this section not shown, inferred

## C[S+]([O-])c1ccc(-c2cncc(NCc3cccs3)n2)cc1 (centres unmarked) [Compound 129]
[1]; readout pge2/pge2d4 area ratio
  COX2 2 minutes pge2/pge2d4 area ratio Avg. LLE: 5.405
[1]; [2]
  pIC50: 6.82
[1]; readout pge2 area (counts)
  COX2 2 minutes pge2 area (counts) Avg. LLE: 5.443
[1]; [3]
  pIC50: 6.85
Ovine COX-1 (oCOX-1); [4]
  COX1 10 minutes pge2 area (counts) Avg. LLE: 2.83
Ovine COX-1 (oCOX-1); [5]
  pIC50: 4.30

## Cc1csc(COc2cncc(-c3ccc(S(C)(=O)=O)cc3)n2)c1 [Compound 10]
[1]; readout pge2/pge2d4 area ratio
  COX2 2 minutes pge2/pge2d4 area ratio Avg. LLE: 5.4246
[1]; [2]
  pIC50: 8.09
[1]; readout pge2 area (counts)
  COX2 2 minutes pge2 area (counts) Avg. LLE: 5.349
[1]; [3]
  pIC50: 8.02
Ovine COX-1 (oCOX-1); [6]
  COX1 10 minutes pge2/pge2d4 area ratio Avg. LLE: 2.513
Ovine COX-1 (oCOX-1); [7]
  pIC50: 5.23
Ovine COX-1 (oCOX-1); [8]
  COX1 10 minutes pge2 area (counts) Avg. LLE: 2.529
Ovine COX-1 (oCOX-1); [9]
  pIC50: 5.25

## CS(=O)(=O)c1ccc(-c2cncc(/C=C\c3cccs3)n2)cc1 [Compound 65]
[1]; readout pge2/pge2d4 area ratio
  COX2 2 minutes pge2/pge2d4 area ratio Avg. LLE: 4.704
[1]; [2]
  pIC50: 7.43
[1]; readout pge2 area (counts)
  COX2 2 minutes pge2 area (counts) Avg. LLE: 4.681
[1]; [3]
  pIC50: 7.41
Ovine COX-1 (oCOX-1)
  pIC50: 4.28
Ovine COX-1 (oCOX-1); [10]
  COX1 10 minutes pge2/pge2d4 area ratio Avg. LLE: 1.544
Ovine COX-1 (oCOX-1); [4]
  COX1 10 minutes pge2 area (counts) Avg. LLE: 1.612
Ovine COX-1 (oCOX-1); [5]
  pIC50: 4.42

## CS(=O)(=O)c1ccc(-c2cccc(NCc3cncs3)n2)cc1 [Compound 99]
[1]; readout pge2/pge2d4 area ratio
  COX2 2 minutes pge2/pge2d4 area ratio Avg. LLE: 4.286
[1]; [2]
  pIC50: 7.11
[1]; readout pge2 area (counts)
  COX2 2 minutes pge2 area (counts) Avg. LLE: 4.248
[1]; [3]
  pIC50: 7.06
Ovine COX-1 (oCOX-1); [10]
  COX1 10 minutes pge2/pge2d4 area ratio Avg. LLE: 1.498
Ovine COX-1 (oCOX-1); [7]
  pIC50: 4.34

## CS(=O)(=O)c1ccc(-c2cnc3ccn(Cc4ccco4)c3n2)cc1 [Compound 82]
[1]; readout pge2/pge2d4 area ratio
  COX2 2 minutes pge2/pge2d4 area ratio Avg. LLE: 4.353
[1]; [2]
  pIC50: 7.24
[1]; readout pge2 area (counts)
  COX2 2 minutes pge2 area (counts) Avg. LLE: 4.328
[1]; [3]
  pIC50: 7.20
Ovine COX-1 (oCOX-1); [10]
  COX1 10 minutes pge2/pge2d4 area ratio Avg. LLE: 1.865
Ovine COX-1 (oCOX-1); [4]
  COX1 10 minutes pge2 area (counts) Avg. LLE: 1.853
Ovine COX-1 (oCOX-1); [5]
  pIC50: 4.75
Ovine COX-1 (oCOX-1); [7]
  pIC50: 4.77

## CS(=O)(=O)c1ccc(-c2coc3ccc(NCc4cccs4)nc23)cc1 [Compound 39]
[1]; [2]
  pIC50: 7.73
[1]; [3]
  pIC50: 7.74
Ovine COX-1 (oCOX-1)
  pIC50: 4.28

## C[C@H](Oc1cccc(-c2ccc(S(C)(=O)=O)cc2)n1)c1cccs1 (single isomer, unassigned) [Compound 46]
[1]; readout pge2/pge2d4 area ratio
  COX2 2 minutes pge2/pge2d4 area ratio Avg. LLE: 3.462
[1]; [2]
  pIC50: 7.69
[1]; readout pge2 area (counts)
  COX2 2 minutes pge2 area (counts) Avg. LLE: 3.431
[1]; [3]
  pIC50: 7.63
Ovine COX-1 (oCOX-1); [6]
  COX1 10 minutes pge2/pge2d4 area ratio Avg. LLE: 0.04315
Ovine COX-1 (oCOX-1); [7]
  pIC50: 4.29
Ovine COX-1 (oCOX-1); [8]
  COX1 10 minutes pge2 area (counts) Avg. LLE: 0.2102
Ovine COX-1 (oCOX-1); [9]
  pIC50: 4.46

## CS(=O)(=O)c1ccc(-c2cccc(OCc3ccc(F)s3)n2)cc1 [Compound 30]
[1]; readout pge2/pge2d4 area ratio
  COX2 2 minutes pge2/pge2d4 area ratio Avg. LLE: 3.668
[1]; [2]
  pIC50: 7.82
[1]; readout pge2 area (counts)
  COX2 2 minutes pge2 area (counts) Avg. LLE: 3.685
[1]; [3]
  pIC50: 7.91
Ovine COX-1 (oCOX-1); [6]
  COX1 10 minutes pge2/pge2d4 area ratio Avg. LLE: 0.1181
Ovine COX-1 (oCOX-1); [7]
  pIC50: 4.37
Ovine COX-1 (oCOX-1); [8]
  COX1 10 minutes pge2 area (counts) Avg. LLE: 0.2149
Ovine COX-1 (oCOX-1); [9]
  pIC50: 4.46

## COc1ncc(NCc2ccccc2)nc1-c1ccc(S(C)(=O)=O)cc1 [Compound 49]
[1]; readout pge2/pge2d4 area ratio
  COX2 2 minutes pge2/pge2d4 area ratio Avg. LLE: 5.235
[1]; [2]
  pIC50: 7.65
[1]; readout pge2 area (counts)
  COX2 2 minutes pge2 area (counts) Avg. LLE: 5.228
[1]; [3]
  pIC50: 7.68
Ovine COX-1 (oCOX-1)
  pIC50: 4.28
Ovine COX-1 (oCOX-1); [6]
  COX1 10 minutes pge2/pge2d4 area ratio Avg. LLE: 1.734
Ovine COX-1 (oCOX-1); [8]
  COX1 10 minutes pge2 area (counts) Avg. LLE: 1.734
